Values of other authors, collected in patent US20170258967A1, “COMPOSITIONS AND METHODS FOR DELIVERING AN AGENT TO A WOUND” (UNIVERSITY OF MEMPHIS RESEARCH FOUNDATION, priority 2014, published 2017).

Test system: S. aureus

CCCCCCC/C=C\C(=O)O [Cis-2-decenoic acid, Cis-2-Decenoic Acid]
effect on S. aureus growth and biofilm formation: inhibit S. aureus growth and biofilm formation
